{"source": "patent US4199600A", "about": "“Preservation of aqueous systems with α-halo-β-aminocrotonic acid esters” (Givaudan Corporation, priority 1978, dated 1980)", "type_in_all_cases": "cell-based", "key": {"Pseudomonas aeruginosa [1]": {"tested_on": "Pseudomonas aeruginosa", "assay": "Cutting oil preservative test in 3.3% cutting oil emulsion", "conditions": "for MIC: Pseudomonas aeruginosa, 3.3% cutting oil emulsion, 28° C., rotary shaker, read-out: Minimum Inhibitory Concentration Range", "method": "(§1) In running these tests, two-fold serial dilutions of 6% solutions of the compound in dimethylformamide was added to 3.3% cutting oil elumsions. The emulsions were prepared by diluting with water a commercially available cutting oil concentrate. The emulsions were inoculated with a culture of Pseudomonas aeruginosa and incubated at 28° C. on a rotary shaker. At weekly intervals, the emulsions were examined for bacteria by conventional streakplate methods. The emulsions were then reinoculated with Pseudomonas aeruginosa and reincubated."}, "Pseudomonas aeruginosa [2]": {"tested_on": "Pseudomonas aeruginosa", "assay": "Textile lubricant preservative test", "conditions": "commercial textile lubricant, 28° C.", "method": "as §1\nThe test run was the same as for the cutting oil above except that a commercial textile lubricant was substituted."}, "A. niger": {"tested_on": "A. niger", "assay": "Slimicide test for pulp and paper mill water systems", "conditions": "28° C.", "method": "(§2) Various quantities of a 6% solution of this compound in dimethylformamide were incorporated into 24 ml of a test substrate composed as follows:\n(§3) 8.4 g--Whatman No. 2 powdered cellulose\n(§4) 1.0 g--Nutrient Broth, Difco\n(§5) 10.0 ml--Mersize Rm 70R (Monsanto)\n(§6) The samples were inoculated with four different organisms and incubated at 28° C. At weekly intervals the samples were examined for the presence of microbial growth and reinoculated during a total incubation period of four weeks."}, "P. Piscarium": {"tested_on": "P. Piscarium", "assay": "Slimicide test for pulp and paper mill water systems", "conditions": "28° C.", "method": "as §2, §3, §4, §5, §6"}, "P. aeruginosa": {"tested_on": "P. aeruginosa", "assay": "Slimicide test for pulp and paper mill water systems", "conditions": "28° C.", "method": "as §2, §3, §4, §5, §6"}, "E. aerogenes": {"tested_on": "E. aerogenes", "assay": "Slimicide test for pulp and paper mill water systems", "conditions": "Klebsiella aerogenes, 28° C.", "method": "as §2, §3, §4, §5, §6"}, "Aspergillis oryzae": {"tested_on": "Aspergillis oryzae", "assay": "General antimicrobial activity, agar dilution MIC (fungi)", "conditions": "168 h, mildew glucose agar, 28° C., seven days, growth only at the lower concentration of the range, read-out: Minimum Inhibitory Concentration", "method": "A 6% soltuion of α-halo-β-aminocrotonic acid ester in dimethyl formamide was prepared. The 6% solution was then […] serially diluted in test tubes to give the desired concentrations when mixed with agar and poured into sterile Petri dishes. For instance, 0.8 ml of a 6% stock solution plus 24.2 ml of agar gives a test concentration of 1920 mcg/ml, the highest level tested. Tryptone glucose extract agar is used for the bacterial testing; mildew glucose agar for the fungal testing. The bacterial plates were spot inoculated with 24-hour nutrient broth cultures and incubated at 37° C. for 48 hours. The fungal plates were spot inoculated with spore suspensions and incubated at 28° C. for seven days. At the end of the incubation periods, all plates were examined for growth. The minimum inhibitory concentration (MIC) for each organism is expressed in Table I. In the ranges presented, growth is observed only at the lower concentration."}, "Pseudomonas aeruginosa [3]": {"tested_on": "Pseudomonas aeruginosa", "assay": "Cosmetic preservative test in lotion", "conditions": "28° C.", "method": "(§7) The α-halo-β-aminocrotonic acid esters are effective cosmetic preservatives. Two-fold serial dilutions of 6% solutions of the α-halo-β-aminocrotonic acid esters in dimethylformamide were added to a cosmetic lotion of the following formulation: The lotions were inoculated with both Pseudomonas aeruginosa and Aspergillus niger and incubated at 28° C. At weekly intervals, the lotions were examined for microorganisms by conventional streak-plate methods or by macroscopic observation. The lotions were then reinoculated with the test organisms and reincubated."}, "Aspergillus niger": {"tested_on": "Aspergillus niger", "assay": "Cosmetic preservative test in lotion", "conditions": "28° C.", "method": "as §7"}, "[4]": {"conditions": "week 1, read-out: Minimum Inhibitory Concentration Range"}, "[5]": {"conditions": "week 3, reinoculated weekly, read-out: Minimum Inhibitory Concentration Range"}, "[6]": {"conditions": "week 4, reinoculated weekly, read-out: Minimum Inhibitory Concentration Range"}, "[7]": {"conditions": "(week 4), reinoculated weekly, read-out: Effectiveness as a Slimicide"}, "[8]": {"conditions": "week 1, read-out: Effectiveness as a Slimicide"}, "[9]": {"conditions": "week 2, reinoculated weekly, read-out: Effectiveness as a Slimicide"}, "[10]": {"conditions": "week 3, reinoculated weekly, read-out: Effectiveness as a Slimicide"}}, "note": "Like-named read-outs stand apart in the source and are kept apart here.", "data": [{"smiles": "COC(=O)/C(Cl)=C(/C)N", "note": "[α-Chloro-β-aminocrotonic acid methyl ester]", "values": [{"measurement": "MIC", "setting": "Pseudomonas aeruginosa [1]; week 1", "result": "< 31.3", "unit": "µg/mL"}, {"measurement": "MIC", "setting": "Pseudomonas aeruginosa [1]; week 2, reinoculated weekly", "result": "62.5 to 125", "unit": "µg/mL"}, {"measurement": "MIC", "setting": "Pseudomonas aeruginosa [1]; week 3, reinoculated weekly", "result": "125 to 250", "unit": "µg/mL"}, {"measurement": "MIC", "setting": "Pseudomonas aeruginosa [1]; week 4, reinoculated weekly", "result": "250 to 500", "unit": "µg/mL"}, {"measurement": "effectiveness as cutting oil preservative (in words)", "setting": "Pseudomonas aeruginosa [1]; overall statement on Table III", "result": "effective cutting preservative"}, {"measurement": "MIC", "setting": "Pseudomonas aeruginosa [2]; [4]", "result": "62.5 to 125", "unit": "µg/mL"}, {"measurement": "MIC", "setting": "Pseudomonas aeruginosa [2]; week 2, reinoculated weekly, read-out: Minimum Inhibitory Concentration Range", "result": "62.5 to 125", "unit": "µg/mL"}, {"measurement": "MIC", "setting": "Pseudomonas aeruginosa [2]; [5]", "result": "62.5 to 125", "unit": "µg/mL"}, {"measurement": "MIC", "setting": "Pseudomonas aeruginosa [2]; [6]", "result": "125 to 250", "unit": "µg/mL"}, {"measurement": "Effectiveness as a Slimicide", "setting": "A. niger; (week 4), reinoculated weekly", "result": "< 62.5", "unit": "µg/mL"}, {"measurement": "Effectiveness as a Slimicide", "setting": "A. niger; week 2, reinoculated weekly", "result": "< 62.5", "unit": "µg/mL"}, {"measurement": "Effectiveness as a Slimicide", "setting": "A. niger; week 3, reinoculated weekly", "result": "< 62.5", "unit": "µg/mL"}, {"measurement": "MIC", "setting": "A. niger; Aspergillus niger, week 1, read-out: Effectiveness as a Slimicide", "result": "< 62.5", "unit": "µg/mL"}, {"measurement": "MIC", "setting": "P. Piscarium; [7]", "result": "62.5 to 125", "unit": "µg/mL"}, {"measurement": "MIC", "setting": "P. Piscarium; [8]", "result": "< 62.5", "unit": "µg/mL"}, {"measurement": "MIC", "setting": "P. Piscarium; [9]", "result": "< 62.5", "unit": "µg/mL"}, {"measurement": "MIC", "setting": "P. Piscarium; [10]", "result": "< 62.5", "unit": "µg/mL"}, {"measurement": "Effectiveness as a Slimicide", "setting": "P. aeruginosa; (week 4), reinoculated weekly", "result": "< 62.5", "unit": "µg/mL"}, {"measurement": "Effectiveness as a Slimicide", "setting": "P. aeruginosa; week 2, reinoculated weekly", "result": "< 62.5", "unit": "µg/mL"}, {"measurement": "Effectiveness as a Slimicide", "setting": "P. aeruginosa; week 3, reinoculated weekly", "result": "< 62.5", "unit": "µg/mL"}, {"measurement": "MIC", "setting": "P. aeruginosa; Pseudomonas aeruginosa, week 1, read-out: Effectiveness as a Slimicide", "result": "< 62.5", "unit": "µg/mL"}, {"measurement": "MIC", "setting": "E. aerogenes; [7]", "result": "250 to 500", "unit": "µg/mL"}, {"measurement": "MIC", "setting": "E. aerogenes; [8]", "result": "< 62.5", "unit": "µg/mL"}, {"measurement": "MIC", "setting": "E. aerogenes; [9]", "result": "125 to 250", "unit": "µg/mL"}, {"measurement": "MIC", "setting": "E. aerogenes; [10]", "result": "250 to 500", "unit": "µg/mL"}, {"measurement": "MIC", "setting": "Aspergillis oryzae", "result": 15, "unit": "µg/mL"}, {"measurement": "Minimum Inhibitory Concentration Range", "setting": "Pseudomonas aeruginosa [3]; week 2, reinoculated weekly", "result": "< 125", "unit": "µg/mL"}, {"measurement": "Minimum Inhibitory Concentration Range", "setting": "Pseudomonas aeruginosa [3]; week 3, reinoculated weekly", "result": "< 125", "unit": "µg/mL"}, {"measurement": "Minimum Inhibitory Concentration Range", "setting": "Pseudomonas aeruginosa [3]; week 4, reinoculated weekly", "result": "< 125", "unit": "µg/mL"}, {"measurement": "MIC", "setting": "Pseudomonas aeruginosa [3]; Pseudomonas aeruginosa, week 1, read-out: Minimum Inhibitory Concentration Range", "result": "< 125", "unit": "µg/mL"}, {"measurement": "MIC", "setting": "Aspergillus niger; [4]", "result": "< 125", "unit": "µg/mL"}, {"measurement": "MIC", "setting": "Aspergillus niger; [5]", "result": "1000 to 2000", "unit": "µg/mL"}, {"measurement": "MIC", "setting": "Aspergillus niger; [6]", "result": "> 2000", "unit": "µg/mL"}]}]}
